Experimental data taken from paper PMC11702115 (BMC Biology, 2025).

Experiments:
OfurIR75/OfurIR8a = OfurIR75/OfurIR8a (Ostrinia furnacalis, UniProt A0A0F7QIG0); assay: two-electrode voltage clamp, Xenopus oocytes; format: cell-based; conditions: agonist, IR8a co-expressed, 10 uM screen, -80 mV, pH 7.6
HarmOR52 (with HarmOrco) = target: T1, HarmOR52 (with HarmOrco) (Helicoverpa armigera, UniProt A0A7T3KAH2); assay: two-electrode voltage clamp, Xenopus oocytes; format: cell-based; conditions: agonist; Orco co-expressed; 100 uM screen, dose series; -80 mV, pH 7.6
T1 sequence (A0A7T3KAH2 1-419): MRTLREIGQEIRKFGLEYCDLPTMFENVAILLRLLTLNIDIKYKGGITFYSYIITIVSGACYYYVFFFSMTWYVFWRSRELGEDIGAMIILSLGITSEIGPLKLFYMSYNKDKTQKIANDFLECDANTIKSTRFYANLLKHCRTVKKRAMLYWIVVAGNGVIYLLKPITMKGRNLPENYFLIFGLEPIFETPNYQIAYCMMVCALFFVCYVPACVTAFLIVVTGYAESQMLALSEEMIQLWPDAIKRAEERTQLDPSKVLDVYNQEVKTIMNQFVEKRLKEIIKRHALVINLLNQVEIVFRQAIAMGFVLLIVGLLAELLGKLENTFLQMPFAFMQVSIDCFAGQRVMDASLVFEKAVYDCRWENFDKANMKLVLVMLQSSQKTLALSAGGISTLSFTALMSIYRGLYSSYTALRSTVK

Sequence of OfurIR75/OfurIR8a (A0A0F7QIG0 19-626): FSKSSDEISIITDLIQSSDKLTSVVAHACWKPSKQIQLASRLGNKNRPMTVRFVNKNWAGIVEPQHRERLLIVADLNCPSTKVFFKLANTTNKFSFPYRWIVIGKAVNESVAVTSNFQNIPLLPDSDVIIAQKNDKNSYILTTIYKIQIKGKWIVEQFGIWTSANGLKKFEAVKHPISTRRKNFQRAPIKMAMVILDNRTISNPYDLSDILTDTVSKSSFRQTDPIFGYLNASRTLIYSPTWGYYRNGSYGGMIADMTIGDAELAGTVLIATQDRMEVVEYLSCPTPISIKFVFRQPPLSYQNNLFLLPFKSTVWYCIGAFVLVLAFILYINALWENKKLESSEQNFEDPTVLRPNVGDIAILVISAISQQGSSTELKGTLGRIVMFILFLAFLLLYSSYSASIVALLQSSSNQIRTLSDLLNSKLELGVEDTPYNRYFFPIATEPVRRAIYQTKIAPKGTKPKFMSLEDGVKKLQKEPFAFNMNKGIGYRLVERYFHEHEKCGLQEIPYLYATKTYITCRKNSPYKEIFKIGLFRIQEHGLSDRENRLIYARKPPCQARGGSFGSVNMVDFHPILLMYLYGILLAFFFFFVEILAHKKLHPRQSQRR
Sequence of OfurIR75/OfurIR8a (A0A0F7QED2 20-902 partner): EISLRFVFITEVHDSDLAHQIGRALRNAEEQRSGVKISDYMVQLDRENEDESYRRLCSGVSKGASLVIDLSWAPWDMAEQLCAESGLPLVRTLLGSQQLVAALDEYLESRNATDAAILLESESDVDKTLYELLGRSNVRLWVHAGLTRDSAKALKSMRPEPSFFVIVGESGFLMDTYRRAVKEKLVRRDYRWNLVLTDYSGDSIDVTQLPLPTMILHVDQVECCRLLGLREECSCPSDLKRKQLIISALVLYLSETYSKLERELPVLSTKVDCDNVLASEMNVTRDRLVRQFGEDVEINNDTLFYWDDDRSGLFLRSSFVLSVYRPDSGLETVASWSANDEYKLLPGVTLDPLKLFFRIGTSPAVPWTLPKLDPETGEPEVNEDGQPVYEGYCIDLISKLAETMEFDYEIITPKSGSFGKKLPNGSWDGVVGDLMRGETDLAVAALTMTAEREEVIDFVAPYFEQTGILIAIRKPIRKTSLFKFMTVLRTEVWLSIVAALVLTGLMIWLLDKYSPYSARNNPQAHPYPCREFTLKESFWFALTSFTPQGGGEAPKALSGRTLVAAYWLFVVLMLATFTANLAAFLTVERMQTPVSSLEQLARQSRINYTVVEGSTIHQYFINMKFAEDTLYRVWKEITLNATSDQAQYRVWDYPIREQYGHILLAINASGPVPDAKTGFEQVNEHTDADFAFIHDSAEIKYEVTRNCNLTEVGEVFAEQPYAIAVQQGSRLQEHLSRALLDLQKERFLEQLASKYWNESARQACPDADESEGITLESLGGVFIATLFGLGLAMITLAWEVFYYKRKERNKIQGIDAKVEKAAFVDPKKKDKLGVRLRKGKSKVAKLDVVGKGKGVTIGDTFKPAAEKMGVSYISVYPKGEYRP

| Compound | two-electrode voltage clamp, Xenopus oocytes (OfurIR75/OfurIR8a) | two-electrode voltage clamp, Xenopus oocytes (HarmOR52 (with HarmOrco)) | two-electrode voltage clamp, Xenopus oocytes (OfurIR75/OfurIR8a; dose series) |
| --- | --- | --- | --- |
| CCCCCCCC(=O)O [octanoic acid] | Weaker responses were elicited by heptanoic acid and octanoic acid | – | – |
| CCCCCO [pentanol] | – | dose-dependent, with a higher sensitivity to isoamyl alcohol compared to pentanol | – |
| CCCCC(=O)O [pentanoic acid] | – | – | OfurIR75/OfurIR8a responded strongly with similar magnitudes to pentanoic acid and hexanoic acid |
| CCCCCCC(=O)O [heptanoic acid] | Weaker responses were elicited by heptanoic acid and octanoic acid | – | – |
| CCCCCC(=O)O [hexanoic acid] | – | – | OfurIR75/OfurIR8a responded strongly with similar magnitudes to pentanoic acid and hexanoic acid |
| CC(C)CCO [isoamyl alcohol] | – | receptors from this clade exhibited similar response profiles, with isoamyl alcohol as the primary ligand | – |
